Source: patent US8759014B2, “Methods of obtaining antigen-specific T cell populations” (The United States of America, as represented by the …, priority 2008, dated 2014)

What follows are compounds tested on PBMC sub-populations (assay: HT-qPCR IFN-γ screen of PBMC sub-populations contacted with candidate mesothelin peptides). Conditions: highest IFN-γ mRNA stimulation index of PBMC sub-populations contacted with the peptide and IL-2; SI <2 = not reactive.
Type: cell-based, human
Experimental: PBMCs obtained by leukapheresis from HLA-A2+ metastatic melanoma patients are used to establish 96 independent subpopulations cultured in complete medium (CM) consisting of RPMI 1640 supplemented with 10% heat-inactivated fetal bovine serum, 2 mM L-glutamine (Invitrogen, Carlsbad, Calif.), 50 units/mL penicillin (Invitrogen), 50 μg/mL streptomycin (Invitrogen), 50 μg/mL gentamicin (Invitrogen), 10 mM Hepes (Invitrogen), and 250 ng/mL Amphotericin B (Invitrogen), along with 10% heat-inactivated human AB serum (Gemini Bio-Products, Woodland, Calif.). […] The SI reactivities for the 96 wells are stratified by their magnitude and the most reactive subpopulations are selected for limiting dilution cloning.
Mesothelin peptides of the following amino acid sequence are synthesized as essentially described in Example 1: […] (SEQ ID NO: 12), […] (SEQ ID NO: 11), […] (SEQ ID NO: 13), […] (SEQ ID NO: 14), […] (SEQ ID NO: 15), […] (SEQ ID NO: 16), […] (SEQ ID NO: 17), […] (SEQ ID NO: 18), […] (SEQ ID NO: 19), and […] (SEQ ID NO: 20). The peptides are used to contact PBMC sub-populations along with IL-2 in accordance with the procedures described in Example 4. HT-qPCR is performed on a sample of each sub-population to determine the expression of IFN-γ by the contacted PBMC sub-populations.

| Compound | Highest SI (Day 14) |
| --- | --- |
| FLLFSLGWV | 29 |
| LIFYKKWEL | <2 |
| LLATQMDRV | <2 |
| LLGFPCAEV | <2 |
| LPLDLLLFL | <2 |
| NMNGSEYFV | *<2 |
| RLSEPPEDL | <2 |
| SLLFLLFSL | 119 |
| VLLPRLVSC | <2 |
| VLPLTVAEV | <2 |

Each compound was assayed on PBMC from HLA-A2+ metastatic melanoma patients (assay: not given). Conditions: not given.

| Compound | number of patients with at least one microculture with significant peptide reactivity (SI >2) [patients] |
| --- | --- |
| CC[C@H](C)[C@H](N)C(=O)N[C@H](C(=O)N[C@@H](CC(=O)O)C(=O)N[C@@H](CCC(N)=O)C(=O)N[C@H](C(=O)N1CCC[C@H]1C(=O)N[C@@H](Cc1ccccc1)C(=O)N[C@@H](CO)C(=O)N[C@H](C(=O)O)C(C)C)C(C)C)[C@@H](C)O [gp100209-217] | 16 |

Same assay, conditions: 17 HLA-A2+ melanoma patients (8 for gp100154-162); 1 μM peptide, 6 days, IL-2 90 IU/ml

| Compound | percent of patients with individual wells with peptide reactivity above background [%] |
| --- | --- |
| CC[C@H](C)[C@H](N)C(=O)N[C@H](C(=O)N[C@@H](CC(=O)O)C(=O)N[C@@H](CCC(N)=O)C(=O)N[C@H](C(=O)N1CCC[C@H]1C(=O)N[C@@H](Cc1ccccc1)C(=O)N[C@@H](CO)C(=O)N[C@H](C(=O)O)C(C)C)C(C)C)[C@@H](C)O [gp100209-217] | 94 |
